Source: patent publication US20240158446A1, “CYCLIC COMPOUND HAVING SELECTIVE INHIBITORY ACTION ON KRAS OVER HRAS AND NRAS” (CHUGAI SEIYAKU KABUSHIKI KAISHA, priority 2021, published 2024)
*1 amine or outer side, *2 acyl side, *3 side chain or, on linkers, in order; H or OH if unused. Where a SMILES comes first, the peptide text is derived from it. Bridges are numbered along the chain shown (N, C = ends). [ ]: non-standard residue; d: D form. The star is where a group is joined. X47 = CC(C)(C)CCN([C@@H](Cc1ccc(C(F)(F)F)cc1)C(=O)[*:2])[*:1]; hPhe(3-Cl-4-CF3) = N[C@@H](CCc1ccc(C(F)(F)F)c(Cl)c1)C(=O)O; NMeGly(cPent) = CN[C@H](C(=O)O)C1CCCC1; NMeD = CN[C@@H](CC(=O)O)C(=O)O; NMeL = CN[C@@H](CC(C)C)C(=O)O; Morpholide = C1CN(*)CCO1; Ac5c = NC1(C(=O)O)CCCC1; Sar = CNCC(=O)O

Columns and labels:
[1] = target: GDP-bound NRAS wild-type protein (Homo sapiens, UniProt P01111); test: Binding to NRAS by surface plasmon resonance (SPR), Single Cycle Kinetics
GDP-bound NRAS wild-type protein, sequence (P01111 whole entry): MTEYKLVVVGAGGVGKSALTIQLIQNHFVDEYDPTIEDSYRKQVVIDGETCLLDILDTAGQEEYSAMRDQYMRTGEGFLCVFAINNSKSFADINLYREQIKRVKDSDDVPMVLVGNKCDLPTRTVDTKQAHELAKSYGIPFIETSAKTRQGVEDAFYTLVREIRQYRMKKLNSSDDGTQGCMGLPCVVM

[2] = target: GDP-bound HRAS wild-type protein (Homo sapiens, UniProt P01112); test: Binding to HRAS by surface plasmon resonance (SPR), Single Cycle Kinetics
GDP-bound HRAS wild-type protein, sequence (P01112 whole entry): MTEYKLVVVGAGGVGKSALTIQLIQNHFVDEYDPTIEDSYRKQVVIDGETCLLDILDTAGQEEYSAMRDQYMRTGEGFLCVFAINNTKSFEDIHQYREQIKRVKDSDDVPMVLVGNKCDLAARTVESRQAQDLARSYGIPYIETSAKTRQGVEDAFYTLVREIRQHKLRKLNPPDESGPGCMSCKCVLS

[3] = SPR, GDP-bound NRAS wild-type protein vs GDP-bound KRAS wild-type protein
[4] = SPR, GDP-bound HRAS wild-type protein vs GDP-bound KRAS wild-type protein

Row | SMILES | NRAS/KRAS (ratio of KD value for NRAS to KD value for KRAS) [1, 3] | HRAS/KRAS (ratio of KD value for HRAS to KD value for KRAS) [2, 4] | further results
1 | CC[C@H](C)[C@@H]1NC(=O)[C@H](CC(C)C)N(C)C(=O)C[C@@H](C(=O)N2CCOCC2)N(C)C(=O)[C@H](C2CCCC2)N(C)C(=O)C2(CCC2)NC(=O)[C@@H]2CC(F)(F)CN2C(=O)[C@H](CCc2ccc(C(F)(F)F)c(Cl)c2)NC(=O)CN(C)C(=O)[C@H](Cc2ccc(F)cc2)N2CCCCC[C@@H](C2=O)N(C)C(=O)CN(C)C1=O [PP0969] | B (a compound having 3 or more and less than 10 is denoted as B) | B (a compound having 3 or more and less than 10 is denoted as B) | 
2 | CCO[C@@H]1C[C@H]2C(=O)NC3(CCC3)C(=O)N(C)[C@@H](C3CCCC3)C(=O)N(C)[C@H](C(=O)N3CCOCC3)CC(=O)N(C)[C@@H](CC(C)C)C(=O)N[C@@H]([C@@H](C)CC)C(=O)N(C)CC(=O)N(C)[C@H]3C[C@H]4C[C@H]4CN(C3=O)[C@@H](Cc3ccc(C(F)(F)F)cc3)C(=O)N(C)CC(=O)N[C@@H](CCc3cc(F)c(C(F)(F)F)c(F)c3)C(=O)N2C1 [PP0829] | B (a compound having 3 or more and less than 10 is denoted as B) | C (A compound having a KD ratio of 0.1 or more and less than 3 is denoted as C) | 
3 | CCO[C@@H]1C[C@H]2C(=O)NC3(CCC3)C(=O)N(C)[C@@H](C3CCCC3)C(=O)N(C)[C@H](C(=O)N3CCOCC3)CC(=O)N(C)[C@@H](COC3CC3)C(=O)N[C@@H]([C@@H](C)CC)C(=O)N(C)CC(=O)N(C)[C@H]3CCCCCN(C3=O)[C@@H](Cc3ccc(C(F)(F)F)cc3)C(=O)N(C)CC(=O)N[C@@H](CCc3cc(F)c(C(F)(F)F)c(F)c3)C(=O)N2C1 [PP0852] | B (a compound having 3 or more and less than 10 is denoted as B) | B (a compound having 3 or more and less than 10 is denoted as B) | 
4 | CCC[C@H]1C(=O)N[C@@H]([C@@H](C)CC)C(=O)N(CCC)CC(=O)N(C)[C@H]2C/C=C\CCN(C2=O)[C@@H](Cc2ccc(C)cc2)C(=O)N(C)CC(=O)N[C@@H](CCc2cc(F)c(C(F)(F)F)c(F)c2)C(=O)N2C[C@H](OCC)C[C@H]2C(=O)NC2(CC(C)(C)C2)C(=O)N(C)[C@@H](C2CCCC2)C(=O)N(C)[C@H](C(=O)N(C)C)CC(=O)N1C [PP2108] | A (a compound having 10 or more and less than 20 is denoted as A) | A (a compound having 10 or more and less than 20 is denoted as A) | 
5 | CC[C@H](C)[C@@H]1NC(=O)[C@H](CC(C)C)N(C)C(=O)C[C@@H](C(=O)N2CCOCC2)N(C)C(=O)[C@H](C2CCCC2)N(C)C(=O)C2(CCCC2)NC(=O)[C@@H]2CCCN2C(=O)[C@H](CCc2ccc(C(F)(F)F)c(Cl)c2)NC(=O)CN(C)C(=O)[C@H](Cc2ccc(C(F)(F)F)cc2)N(CCC(C)(C)C)C(=O)CN(C)C(=O)CN(C)C1=O [PP0127] ([NMeL]I[Sar][Sar][X47][Sar][hPhe(3-Cl-4-CF3)]P[Ac5c][NMeGly(cPent)][NMeD]-Morpholide; lactam N-11) | C (A compound having a KD ratio of 0.1 or more and less than 3 is denoted as C) | C (A compound having a KD ratio of 0.1 or more and less than 3 is denoted as C) | 
6 | CC[C@H](C)[C@@H]1NC(=O)[C@H](CC(C)C)N(C)C(=O)C[C@@H](C(=O)N(C)C)N(C)C(=O)[C@H](C2CCCC2)N(C)C(=O)C2(CCCC2)NC(=O)[C@@H]2CCCN2C(=O)[C@H](CCc2ccc(C(F)(F)F)c(Cl)c2)NC(=O)CN(C)C(=O)[C@H](Cc2ccc(C)cc2)N2CC=CCOC[C@H](C2=O)N(C)C(=O)CN(C)C1=O [PP0629] |  |  | NRAS/KRAS (ratio of KD value with respect to NRAS to KD value with respect to KRAS) [1, 3]: B (a compound having 3 or more and less than 10 is denoted as B); HRAS/KRAS (ratio of KD value with respect to HRAS to KD value with respect to KRAS) [2, 4]: C (A compound having a KD ratio of 0.1 or more and less than 3 is denoted as C)
7 | CCO[C@@H]1C[C@H]2C(=O)NC3(CCC3)C(=O)N(C)[C@@H](C3CCCC3)C(=O)N(C)[C@H](C(=O)N(C)CC)CC(=O)N(C)[C@@H](CC(C)C)C(=O)N[C@@H]([C@@H](C)CC)C(=O)N(C)CC(=O)N(C)[C@H]3C/C=C\CCN(C3=O)[C@@H](Cc3ccc(C(F)(F)F)cc3)C(=O)N(C)CC(=O)N[C@@H](CCc3ccc(C(F)(F)F)c(Cl)c3)C(=O)N2C1 [PP2847] |  |  | NRAS/KRAS (ratio of KD value with respect to GDP-bound NRAS wild-type protein to KD value with respect to KRAS) ([1]; SPR KD ratio NRAS/KRAS, class symbols): A (a compound having 10 or more and less than 20 is denoted as A); HRAS/KRAS (ratio of KD value with respect to GDP-bound HRAS wild-type protein to KD value with respect to KRAS) ([2]; SPR KD ratio HRAS/KRAS, class symbols): A (a compound having 10 or more and less than 20 is denoted as A)
8 | CCC[C@@H]1C[C@H]2C(=O)NC3(CCCC3)C(=O)N(C)[C@@H](C3CCCC3)C(=O)N(C)[C@H](C(=O)N(C)C)CC(=O)N(C)[C@@H](CC)C(=O)N[C@@H]([C@@H](C)CC)C(=O)N(C)CC(=O)N(C)[C@H]3C/C=C\CCN(C3=O)[C@@H](Cc3ccc(C)cc3)C(=O)N(C)CC(=O)N[C@@H](CCc3cc(F)c(C(F)(F)F)c(F)c3)C(=O)N2C1 [PP2227] | A (a compound having 10 or more and less than 20 is denoted as A) | A (a compound having 10 or more and less than 20 is denoted as A) | 
